# pIC50: −log10 of the molar value.
# Legend:
# [1] = Log D by shake flask method (octanol / PBS pH 7.4, HPLC); type: physicochemical; conditions: octanol / PBS pH 7.4, shake flask; read-out: logD
# Summary of the method: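 Shake-flask partitioning of compound between octanol and PBS at pH 7.4, with phase concentrations quantified by HPLC. The value reported is Log D.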
# [2] = Caco-2 permeability assay (CacoReady kit); type: in vitro ADME; conditions: human
# Summary of the method: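 Apparent permeability coefficients (Papp) were measured across Caco-2 cell barriers using a ready-to-use kit run per the supplier's protocol. Values serve as a predictor of oral/intestinal bioavailability.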
# [3] = biological target: T1, recombinant human transglutaminase 2 (Homo sapiens, UniProt P21980); assay: Transglutaminase assay: incorporation of dansylcadaverine into dimethylcasein (DCC-assay); type: biochemical; conditions: recombinant human TG2 10 nM, dansylcadaverine/dimethylcasein; read-out: IC50 TG2
# T1 sequence (P21980 1-687): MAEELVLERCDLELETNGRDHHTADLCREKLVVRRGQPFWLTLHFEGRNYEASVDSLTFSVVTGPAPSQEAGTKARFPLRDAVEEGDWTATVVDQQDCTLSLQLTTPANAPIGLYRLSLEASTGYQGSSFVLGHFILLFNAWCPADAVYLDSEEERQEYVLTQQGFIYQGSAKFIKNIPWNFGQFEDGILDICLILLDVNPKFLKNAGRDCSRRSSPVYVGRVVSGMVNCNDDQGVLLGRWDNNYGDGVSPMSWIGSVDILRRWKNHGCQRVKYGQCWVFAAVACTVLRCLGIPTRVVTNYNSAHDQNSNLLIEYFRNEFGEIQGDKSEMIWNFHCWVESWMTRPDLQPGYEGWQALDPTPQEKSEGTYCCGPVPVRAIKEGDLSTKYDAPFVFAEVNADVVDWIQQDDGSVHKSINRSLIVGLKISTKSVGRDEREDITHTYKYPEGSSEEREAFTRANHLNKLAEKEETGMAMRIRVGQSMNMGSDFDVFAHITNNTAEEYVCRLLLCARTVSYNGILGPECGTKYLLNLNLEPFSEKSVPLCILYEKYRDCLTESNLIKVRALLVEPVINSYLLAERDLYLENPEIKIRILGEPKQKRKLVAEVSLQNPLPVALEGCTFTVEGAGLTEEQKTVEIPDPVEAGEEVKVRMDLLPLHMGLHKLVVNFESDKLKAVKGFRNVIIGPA
# Summary of the method: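 Recombinant human TG2 (10 nM final) incorporates dansylcadaverine (16.7 μM) into N,N-dimethylcasein (4 μM) in Tris-HCl buffer, pH 8.0, with 10 mM CaCl2 and 10 mM glutathione. Fluorescence (λex 330, λem 500 nm) followed 30 min. The slope between 20–30 min gives activity versus DMSO control, and IC50 comes from the concentration–activity plot.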
Structure (SMILES),logD [1],Papp [2],pIC50 [3]
"CCNC(=O)C(=O)CC[C@H](NC(=O)c1cc2ccccc2n1CC)C(=O)Nc1cccn(CC(=O)NC23CC(C2)C3)c1=O [Compound I-102, (S)-N1-(1-(2-(bicyclo[1.1.1]pentan-1-ylamino)-2-oxoethyl)-2-oxo-1,2-dihydropyridin-3-yl)-N6-ethyl-2-(1-ethyl-1H-indole-2-carboxamido)-5-oxohexanediamide]",1 to 3,1 to 10 ×10⁻⁶ cm/s,6.22 to 6.82
"CCNC(=O)C(=O)CC[C@H](NC(=O)c1cc2cccnc2nc1C)C(=O)Nc1cccn(CC(=O)NC23CC(C2)C3)c1=O [Compound I-103, (S)-N1-(1-(2-(bicyclo[1.1.1]pentan-1-ylamino)-2-oxoethyl)-2-oxo-1,2-dihydropyridin-3-yl)-N6-ethyl-2-(2-methyl-1,8-naphthyridine-3-carboxamido)-5-oxohexanediamide]",< 1,< 1 ×10⁻⁶ cm/s,5.46 to 6.22
"CCNC(=O)C(=O)CC[C@H](NC(=O)c1ccc2c(c1)CCCN2)C(=O)Nc1cccn(CC(=O)NC23CCC(C2)C3)c1=O [Compound I-104, (S)-N1-(1-(2-(bicyclo[2.1.1]hexan-1-ylamino)-2-oxoethyl)-2-oxo-1,2-dihydropyridin-3-yl)-N6-ethyl-5-oxo-2-(1,2,3,4-tetrahydroquinoline-6-carboxamido)hexanediamide]",< 1,< 1 ×10⁻⁶ cm/s,5.46 to 6.22
"CCNC(=O)C(=O)CC[C@H](NC(=O)c1ccc2c(c1)CC(=O)NC2)C(=O)Nc1cccn(CC(=O)NC2(C(=O)O)C3CC4CC2CC(C(F)(F)F)(C4)C3)c1=O (stereo partly drawn) [Compound I-105, (S)-N1-ethyl-N6-(1-(2-(2-carboxy-2-amino-5-(trifluoromethyl)adamantane)-2-oxoethyl)-2-oxo-1,2-dihydropyridin-3-yl)-2-oxo-5-(3-oxo-1,2,3,4-tetrahydroisoquinoline-6-carboxamido)hexanediamide]",< 1,< 1 ×10⁻⁶ cm/s,5.46 to 6.22
"CCNC(=O)C(=O)CC[C@H](NC(=O)c1ccc2cnccc2n1)C(=O)Nc1cccn(CC(=O)NC2C3CC4CC2CC(CC)(C4)C3)c1=O (stereo partly drawn) [Compound I-106, (S)-N1-ethyl-N6-(1-(2-(5-ethyladamantane-2-amino)-2-oxoethyl)-2-oxo-1,2-dihydropyridin-3-yl)-5-(1,6-naphthyridine-2-carboxamido)-2-oxohexanediamide]",3 to 5,< 1 ×10⁻⁶ cm/s,5.46 to 6.22
"CCNC(=O)C(=O)CC[C@H](NC(=O)c1nccc2cnccc12)C(=O)Nc1cccn(CC(=O)NC23CCC(C2)C3)c1=O [Compound I-107, (S)-N1-(1-(2-(bicyclo[2.1.1]hexan-1-ylamino)-2-oxoethyl)-2-oxo-1,2-dihydropyridin-3-yl)-N6-ethyl-2-(2,6-naphthyridine-1-carboxamido)-5-oxohexanediamide]",< 1,< 1 ×10⁻⁶ cm/s,5.46 to 6.22
"CCNC(=O)C(=O)CC[C@H](NC(=O)c1nonc1N)C(=O)Nc1cccn(CC(=O)NC23CC(C2)C3)c1=O [Compound I-108, (S)-2-(4-amino-1,2,5-oxadiazole-3-carboxamido)-N1-(1-(2-(bicyclo[1.1.1]pentan-1-ylamino)-2-oxoethyl)-2-oxo-1,2-dihydropyridin-3-yl)-N6-ethyl-5-oxohexanediamide]",< 1,< 1 ×10⁻⁶ cm/s,5.46 to 6.22
"CCNC(=O)C(=O)CC[C@H](NC(=O)c1cc2ccc(N(C)C)cc2o1)C(=O)Nc1cccn(CC(=O)NC23CC(C2)C3)c1=O [Compound I-109, (S)-N1-(1-(2-(bicyclo[1.1.1]pentan-1-ylamino)-2-oxoethyl)-2-oxo-1,2-dihydropyridin-3-yl)-2-(6-(dimethylamino)benzofuran-2-carboxamido)-N6-ethyl-5-oxohexanediamide]",< 1,< 1 ×10⁻⁶ cm/s,6.22 to 6.82
"CCNC(=O)C(=O)CC[C@H](NC(=O)c1cnc(NC(C)=O)s1)C(=O)Nc1cccn(CC(=O)NC23CC(C2)C3)c1=O [Compound I-110, (S)-2-(2-acetamidothiazole-5-carboxamido)-N1-(1-(2-(bicyclo[1.1.1]pentan-1-ylamino)-2-oxoethyl)-2-oxo-1,2-dihydropyridin-3-yl)-N6-ethyl-5-oxohexanediamide]",< 1,< 1 ×10⁻⁶ cm/s,5.46 to 6.22
"CCNC(=O)C(=O)CC[C@H](NC(=O)c1c[nH]c(C(N)=O)c1)C(=O)Nc1cccn(CC(=O)NC23CC(C2)C3)c1=O [Compound I-111, (S)-N4-(1-(1-(2-(bicyclo[1.1.1]pentan-1-ylamino)-2-oxoethyl)-2-oxo-1,2-dihydropyridin-3-ylamino)-6-(ethylamino)-1,5,6-trioxohexan-2-yl)-1H-pyrrole-2,4-dicarboxamide]",< 1,< 1 ×10⁻⁶ cm/s,5.46 to 6.22
"CCNC(=O)C(=O)CC[C@H](NC(=O)c1coc(S(N)(=O)=O)c1)C(=O)Nc1cccn(CC(=O)NC2C3CC4CC2CC(NC(C)=O)(C4)C3)c1=O (stereo partly drawn) [Compound I-112, (S)-N1-ethyl-N6-(1-(2-(1-acetylamino-4-aminoadamantane)-2-oxoethyl)-2-oxo-1,2-dihydropyridin-3-yl)-2-oxo-5-(5-sulfamoylfuran-3-carboxamido)hexanediamide]",< 1,< 1 ×10⁻⁶ cm/s,5.46 to 6.22
"CCNC(=O)C(=O)CC[C@H](NC(=O)c1ccc2occc2c1)C(=O)Nc1cccn(CC(=O)NC2C3CC4CC2CC(NC(C)=O)(C4)C3)c1=O (stereo partly drawn) [Compound I-113, (S)-2-(benzofuran-5-carboxamido)-N6-ethyl-N1-(1-(2-(1-acetylamino-4-aminoadamantane)-2-oxoethyl)-2-oxo-1,2-dihydropyridin-3-yl)-5-oxohexanediamide]",< 1,< 1 ×10⁻⁶ cm/s,6.22 to 6.82
"CCNC(=O)C(=O)CC[C@H](NC(=O)c1ccc2ccoc2c1)C(=O)Nc1cccn(CC(=O)NC2C3CC4CC2CC(C(N)=O)(C4)C3)c1=O (stereo partly drawn) [Compound I-114, (S)-2-(benzofuran-6-carboxamido)-N6-ethyl-N1-(1-(2-(4-aminoadamantane-1-carboxamide)-2-oxoethyl)-2-oxo-1,2-dihydropyridin-3-yl)-5-oxohexanediamide]",< 1,< 1 ×10⁻⁶ cm/s,6.22 to 6.82
"CCNC(=O)C(=O)CC[C@H](NC(=O)c1nc(C2(C)CC2)no1)C(=O)Nc1cccn(CC(=O)NC2C3CC4CC2CC(C(N)=O)(C4)C3)c1=O (stereo partly drawn) [Compound I-115, (S)-N1-ethyl-N6-(1-(2-(4-aminoadamantane-1-carboxamide)-2-oxoethyl)-2-oxo-1,2-dihydropyridin-3-yl)-5-(3-(1-methylcyclopropyl)-1,2,4-oxadiazole-5-carboxamido)-2-oxohexanediamide]",< 1,< 1 ×10⁻⁶ cm/s,5.46 to 6.22
"CCNC(=O)C(=O)CC[C@H](NC(=O)c1noc(C)n1)C(=O)Nc1cccn(CC(=O)NC23CC(C2)C3)c1=O [Compound I-116, (S)-N1-(1-(2-(bicyclo[1.1.1]pentan-1-ylamino)-2-oxoethyl)-2-oxo-1,2-dihydropyridin-3-yl)-N6-ethyl-2-(5-methyl-1,2,4-oxadiazole-3-carboxamido)-5-oxohexanediamide]",< 1,< 1 ×10⁻⁶ cm/s,5.46 to 6.22
"CCNC(=O)C(=O)CC[C@H](NC(=O)c1csnn1)C(=O)Nc1cccn(CC(=O)NC23CC(C2)C3)c1=O [Compound I-117, (S)-N1-(1-(2-(bicyclo[1.1.1]pentan-1-ylamino)-2-oxoethyl)-2-oxo-1,2-dihydropyridin-3-yl)-N6-ethyl-5-oxo-2-(1,2,3-thiadiazole-4-carboxamido)hexanediamide]",< 1,< 1 ×10⁻⁶ cm/s,6.22 to 6.82
"CCNC(=O)C(=O)CC[C@H](NC(=O)c1ncns1)C(=O)Nc1cccn(CC(=O)NC23CC(C2)C3)c1=O [Compound I-118, (S)-N1-(1-(2-(bicyclo[1.1.1]pentan-1-ylamino)-2-oxoethyl)-2-oxo-1,2-dihydropyridin-3-yl)-N6-ethyl-5-oxo-2-(1,2,4-thiadiazole-5-carboxamido)hexanediamide]",< 1,< 1 ×10⁻⁶ cm/s,6.22 to 6.82
"CCNC(=O)C(=O)CC[C@H](NC(=O)c1nncs1)C(=O)Nc1cccn(CC(=O)NC23CC(C2)C3)c1=O [Compound I-119, (S)-N1-(1-(2-(bicyclo[1.1.1]pentan-1-ylamino)-2-oxoethyl)-2-oxo-1,2-dihydropyridin-3-yl)-N6-ethyl-5-oxo-2-(1,3,4-thiadiazole-2-carboxamido)hexanediamide]",< 1,< 1 ×10⁻⁶ cm/s,6.22 to 6.82

# Source: patent publication US20240270715A1, “INHIBITORS OF TRANSGLUTAMINASES” (ZEDIRA GMBH, priority 2021, published 2024)
